# Experimental data as given in US4952572A (priority 1989, dated 1990).
# How the values were obtained:
# [1] = test system: Staphylococcus aureus Smith; experiment: In vivo activity against S. aureus Smith infection (ip) in mice; conditions: im, single
# Description: Mice were challenged intraperitoneally with 100 times the lethal dose of the pathogen in a 5% suspension of hog gastric mucin (American Laboratory, Omaha, Neb.). BU-3420T was administered to mice intramuscularly just before the bacterial challenge.
# [2] = Acute toxicity in mice, intramuscular; type: in vivo; conditions: 5 mg/kg
# P388/VCR cells = experiment: In vitro cytotoxicity, viable cell count; conditions: in words
# Description: (§1) On the other hand, the cytotoxic activities against P388 and P388/VCR cells were determined by counting the number of viable cells.
# Solubility = type: physicochemical
# [3] = test system: Gram-positive aerobic bacteria; type: cell-based; conditions: in words
# Gram-negative organisms = type: cell-based; conditions: in words; relative to Gram-positive aerobic bacteria
# [4] = test system: murine and human tumor cell lines; experiment: In vitro cytotoxicity, summary; conditions: in words
# Description: as §1
# Moser cells = experiment: In vitro cytotoxicity, neutral red; type: cell-based, human
# Cryptococcus neoformans = experiment: In vitro antifungal activity, summary; type: cell-based; conditions: relative to BU-3420T acetate
compound,measurement,setting,value
COC1=C(C(=O)O)C(C)C23OC24c2cc(O)c5c(c2NC3C#C/C=C\C#CC14)C(=O)c1c(O)ccc(O)c1C5=O (stereo not shown) [BU-3420T],No. of survivor/tested,[1]; 0.01 mg/kg,0/5
same,No. of survivor/tested,[1]; 0.04 mg/kg,0/5
same,toxicity,[2],did not show any toxicity
same,cytotoxicity against VCR-sensitive vs resistant P388 cells,P388/VCR cells,same cytotoxicities
same,solubility,"Solubility; in chloroform, ethyl acetate, methanol and ethanol",slightly soluble
same,solubility,"Solubility; in dimethyl sulfoxide, dimethylformamide and dioxane",soluble
same,solubility,Solubility; in water and n-hexane,insoluble
same,antibacterial activity,[3],intensely potent activity
same,susceptibility of Gram-negative organisms,Gram-negative organisms,a little less susceptible
same,cytotoxicity,[4],potent cytotoxicity
CO[C@@]12[C@H](COC(N)=O)C3=C(C(=O)C(C)=C(N)C3=O)N1C[C@@H]1N[C@@H]12 [Mitomycin C],resistance of Moser and HCT-116 relative to B16-F10,Moser cells; Moser and HCT-116 cells vs B16-F10,slightly more resistant
COC1=C(C(=O)O)C(C)C23OC24c2cc(OC(C)=O)c5c(c2NC3C#C/C=C\C#CC14)C(=O)c1c(OC(C)=O)ccc(OC(C)=O)c1C5=O (stereo not shown) [BU-3420T acetate],IC50,"Moser cells; Homo sapiens, Moser, 72 hours",0.003 ng/mL
same,solubility,"Solubility; in organic solvents such as chloroform, methanol and ethanol, relative to BU-3420T",much improved solubility
same,antibacterial activity,[3],intensely potent activity
same,susceptibility of Gram-negative organisms,Gram-negative organisms,a little less susceptible
C[C@@H]1[C@H](O)[C@@H](C)/C=C/C=C/C=C/C=C/C=C/C=C/C=C/[C@H](O[C@@H]2O[C@H](C)[C@@H](O)[C@H](N)[C@@H]2O)C[C@@H]2O[C@](O)(C[C@@H](O)C[C@@H](O)[C@H](O)CC[C@@H](O)C[C@@H](O)CC(=O)O[C@H]1C)C[C@H](O)[C@H]2C(=O)O [Amphotericin B],susceptibility of Cryptococcus neoformans,Cryptococcus neoformans,more susceptible to amphotericin B
